Measured values taken from patent US20120039954A1, “METHOD OF TREATING INSOMNIA” (SOMNUS THERAPEUTICS, INC., priority 2008, published 2012).

Assay: Drug plasma levels in the Example 9 trial
Settings: 10 mg single oral dose
Source text: Non-elderly adults were enrolled in a cross-over, double-blind trial. […] Drug plasma levels were obtained at the same times.

## CCN(C(C)=O)c1cccc(-c2ccnc3c(C#N)cnn23)c1 [zaleplon, N-[3-(3-cyanopyrazole[1,5-a]pyrimidin-7-yl)phenyl]-N-ethylacetamide]
  Time post-dose at which drug plasma levels peaked: 1.5 h
